Like-named read-outs stand apart in the source and are kept apart here.
Key:
[1] = system: MKN-45; test: Inhibition of MKN-45 proliferation (MTT); format: cell-based, human; details: Homo sapiens, MKN-45 proliferation; for inhibition at 0.1 µM: 100 nM, read-out: MKN45 % inhibition @ 100 nM; for GI50: read-out: MKN45 GI50
Procedure: 3. Inhibition of MKN-45 Proliferation:
Cell proliferation assays were carried out using the high Met expressing human gastric adenocarcinoma cell line, MKN-45, according to the following schedule: • Day 1: Cells were plated in 96-well plates in complete growth medium. • Day 2: Compounds at desired concentrations were added. • Day 5: Cell viability was determined using the 3-[4,5-dimethylthiazol-2-yl]-2,5-diphenyltetrazolium bromide (MTT) dye reduction test. Results: The results are as given as % Inhibition of MKN-45 proliferation at 100 nM and GI50 values in Table 4A to 4C above. 4. Inhibition of c-Met Kinase Phosphorylation in MKN-45 Cells: […]

[2] = target: T1, human recombinant Met kinase (Homo sapiens, UniProt P08581); test: Colorimetric determination of c-Met kinase activity (HTScan Met Kinase Assay Kit); format: biochemical; details: for inhibition at 0.1 µM: 100 nM (cells without *), read-out: c-Met Enzyme % inhibition @ 100 nM; for inhibition: cells marked *: tested @ 300 nM, read-out: c-Met Enzyme % inhibition
T1 construct: purchased Cell Signalling Technology, Beverly, Mass
From the text: 1. MET Kinase Assay Protocol:
Colorimetric Determination of c-Met Kinase Activity
The receptor tyrosine kinase c-Met is a heterodimeric transmembrane glycoprotein involved in several cellular processes that aid in tumor progression. Phosphorylation of the tyrosine residues in the c-Met kinase domain is critical for its activity and the resulting down-stream effects. The colorimetric assay allows detection of the phosphorylated form of a biotinylated peptide upon activation of human recombinant Met kinase.
MET Kinase Assay Protocol:
c-Met Kinase activity shall be determined using an HTScan® Met Kinase Assay Kit (Cell Signalling Technology, Beverly, Mass.) with modifications. All incubations are carried out at room temperature. Briefly, 12.5 μl of a 4× reaction cocktail (DTT/Kinase buffer containing appropriate quantity of human Met kinase) is added to each well of a 96-well plate containing 12.5 μl pre-diluted compound of interest and incubated for 5 minutes. After the initial incubation, 25 μl/well of 2×ATP/biotinylated peptide is added and incubated for an additional 30 minutes. The reaction is terminated by the addition of 50 μl/well stop buffer (50 mM EDTA, pH 8.0). The reaction mixture (25 μl/well) is then transferred to a streptavidin coated plate (Perkin Elmer, Cat#4009-0010) containing 75 μl dH2O and incubated for 60 minutes. The plate is washed with 200 μl/well wash buffer (1×PBS, 0.05% Tween-20). After washing, 100 μl/well phospho-tyrosine mAb (1:1000 in wash buffer containing 1% BSA) is added and incubated for 60 minutes. After another round of washes, 100 μl/well europium labelled anti-mouse IgG (1:500 in wash buffer containing 1% BSA) is added and incubated for an additional 30 minutes. Following additional washes, 100 μl/well Delfia^(R) enhancement solution (Perkin Elmer, Cat#1244-105) is added and incubated for 45 minutes. Florescence is measured on a microplate reader (BMG Labtech., Germany) at 340 nm (excitation) and 615 nm (emission) for calculating % inhibition. Data generated can be analyzed further using Graphpad Prism (Graphpad software, San Diego Calif.) for determination of IC50.
Results: The results are as given below in Table 4A, 4B and 4C as % Inhibition or IC50 of c-Met

T1 sequence (P08581 25-1390): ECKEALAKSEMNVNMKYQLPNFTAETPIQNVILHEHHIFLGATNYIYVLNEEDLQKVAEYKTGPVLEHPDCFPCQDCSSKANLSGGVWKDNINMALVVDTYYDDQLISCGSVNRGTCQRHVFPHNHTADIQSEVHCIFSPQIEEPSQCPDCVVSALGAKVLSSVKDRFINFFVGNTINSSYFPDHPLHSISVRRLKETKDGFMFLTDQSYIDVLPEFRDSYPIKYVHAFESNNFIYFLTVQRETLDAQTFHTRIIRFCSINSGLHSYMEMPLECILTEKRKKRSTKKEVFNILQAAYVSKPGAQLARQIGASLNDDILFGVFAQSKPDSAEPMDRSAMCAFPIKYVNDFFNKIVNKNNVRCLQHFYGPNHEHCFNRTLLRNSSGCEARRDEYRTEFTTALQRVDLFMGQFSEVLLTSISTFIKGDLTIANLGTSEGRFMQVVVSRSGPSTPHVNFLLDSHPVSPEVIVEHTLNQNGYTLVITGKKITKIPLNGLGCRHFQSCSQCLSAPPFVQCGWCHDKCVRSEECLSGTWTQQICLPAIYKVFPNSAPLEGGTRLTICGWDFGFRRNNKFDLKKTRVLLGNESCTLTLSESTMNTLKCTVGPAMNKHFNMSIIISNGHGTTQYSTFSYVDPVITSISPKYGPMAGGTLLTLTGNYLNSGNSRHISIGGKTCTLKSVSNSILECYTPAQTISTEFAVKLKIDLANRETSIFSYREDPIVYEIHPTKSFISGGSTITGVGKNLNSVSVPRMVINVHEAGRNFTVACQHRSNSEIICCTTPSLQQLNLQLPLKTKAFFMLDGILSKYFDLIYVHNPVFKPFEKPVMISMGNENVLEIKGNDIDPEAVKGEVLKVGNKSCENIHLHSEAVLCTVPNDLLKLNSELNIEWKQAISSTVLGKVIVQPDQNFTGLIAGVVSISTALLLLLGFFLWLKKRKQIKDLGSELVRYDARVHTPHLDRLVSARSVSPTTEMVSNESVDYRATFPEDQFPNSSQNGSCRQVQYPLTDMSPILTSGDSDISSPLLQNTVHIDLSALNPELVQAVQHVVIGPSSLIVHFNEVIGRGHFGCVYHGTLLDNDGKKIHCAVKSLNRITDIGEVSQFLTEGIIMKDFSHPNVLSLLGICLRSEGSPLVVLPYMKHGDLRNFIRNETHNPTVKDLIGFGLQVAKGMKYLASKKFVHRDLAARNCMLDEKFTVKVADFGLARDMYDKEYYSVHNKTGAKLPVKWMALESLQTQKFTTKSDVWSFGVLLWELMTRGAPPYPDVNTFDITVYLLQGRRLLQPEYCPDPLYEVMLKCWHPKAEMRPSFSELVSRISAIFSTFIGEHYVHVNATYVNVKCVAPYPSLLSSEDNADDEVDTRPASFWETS

Row | Compound | inhibition at 0.1 µM ([1]; MKN-45, Table 4A) | GI50 ([1]; MKN-45, Table 4A) | inhibition at 0.1 µM ([2]; Table 4A) | further results
1 | Cc1cc(-c2ccc3ncn(Cc4ccc5ncccc5c4)c3n2)ccc1C(=O)NOCCO [Example 111, N-(2-Hydroxy-ethoxy)-2-methyl-4-(3-quinolin-6-ylmethyl-3H-imidazo[4,5-b]pyridin-5-yl)-benzamide] | – | – | – | inhibition at 0.1 µM ([1]; MKN-45, Table 4B): < 25%; inhibition at 0.1 µM ([2]; Table 4B): 75 to 100%
2 | O=C(NOCCO)c1ccc(-c2ccc3nnn(Cc4cc5cccnc5cc4F)c3n2)cc1F [Example 27, 2-fluoro-4-(3-((7-fluoroquinolin-6-yl)methyl)-3H-[1,2,3]triazolo[4,5-b]pyridin-5-yl)-N-(2-hydroxyethoxy)benzamide] | 75 to 100% | 0.025 to 0.05 µM | 75 to 100% | –
3 | NC(=O)c1ccc(-c2ccc3ncn(Cc4c(F)cc5ncccc5c4F)c3n2)cc1C(F)(F)F [Example 1028, 4-[3-(5,7-Difluoro-quinolin-6-ylmethyl)-3H-imidazo[4,5-b]pyridin-5-yl]-2-trifluoromethyl-benzamide] | – | – | – | inhibition at 0.1 µM ([1]; MKN-45, Table 4C): 75 to 100%; inhibition at 0.1 µM ([2]; Table 4C): 75 to 100%
4 | Cc1cc(-c2ccc3ncn(Cc4ccc5ncccc5c4)c3n2)ccc1C(=O)NOCC(C)(C)O [Example 112, N-(2-Hydroxy-2-methyl-propoxy)-2-methyl-4-(3-quinolin-6-ylmethyl-3H-imidazo[4,5-b]pyridin-5-yl)-benzamide] | – | – | – | inhibition at 0.1 µM ([1]; MKN-45, Table 4B): < 25%; inhibition at 0.1 µM ([2]; Table 4B): 75 to 100%
5 | C/C(=N\NC(N)=S)c1ccc2ncn(Cc3ccc4ncccc4c3)c2n1 [Example 108, 2-(1-(3-(quinolin-6-ylmethyl)-3H-imidazo[4,5-b]pyridin-5-yl)ethylidene)hydrazinecarbothioamide] | – | – | – | inhibition at 0.1 µM ([1]; MKN-45, Table 4B): < 25%; inhibition ([2]; Table 4B): < 25%
6 | CC(C)(O)CONC(=O)c1c(F)cc(-c2ccc3nnn(Cc4ccc5ncccc5c4)c3n2)cc1F [Example 34, 2,6-difluoro-N-(2-hydroxy-2-methylpropoxy)-4-(3-(quinolin-6-ylmethyl)-3H-[1,2,3]triazolo[4,5-b]pyridin-5-yl)benzamide] | 75 to 100% | 0.025 to 0.05 µM | 75 to 100% | –
7 | CCOC(=O)CONC(=O)c1ccc(-c2ccc3nnn(Cc4ccc5ncccc5c4)c3n2)cc1Cl [Example 29, ethyl 2-(2-chloro-4-(3-(quinolin-6-ylmethyl)-3H-[1,2,3]triazolo[4,5-b]pyridin-5-yl)benzamidooxy)acetate] | < 25% | 0.1 to 0.25 µM | 75 to 100% | –
8 | NC(=O)CCNC(=O)c1ccc(-c2ccc3nnn(Cc4ccc5ncccc5c4)c3n2)cc1 [Example 3, N-(3-amino-3-oxopropyl)-4-(3-(quinolin-6-ylmethyl)-3H-[1,2,3]triazolo[4,5-b]pyridin-5-yl)benzamide] | – | 0.1 to 0.25 µM | – | inhibition ([2]; Table 4A): 50 to 75%
9 | C/C(=N\OCCO)c1ccc2nnn(Cc3ccc4ncccc4c3)c2n1 [Example 62, 1-(3-(quinolin-6-ylmethyl)-3H-[1,2,3]triazolo[4,5-b]pyridin-5-yl)ethanone O-2-hydroxyethyl oxime] | < 25% | – | – | inhibition ([2]; Table 4A): < 25%
10 | O=C(NOCCO)c1ccc(-c2ccc3nnn(Cc4cc5cccnc5cc4F)c3n2)cc1C(F)(F)F [Example 24, 4-(3-((7-fluoroquinolin-6-yl)methyl)-3H-[1,2,3]triazolo[4,5-b]pyridin-5-yl)-N-(2-hydroxyethoxy)-2-(trifluoromethyl)benzamide] | 75 to 100% | 0.025 to 0.05 µM | 75 to 100% | –
11 | O=C(NOCCO)c1ccc(-c2ccc3nnn(Cc4ccc5ncccc5c4)c3n2)cc1C(F)(F)F [Example 23, N-(2-hydroxyethoxy)-4-(3-(quinolin-6-ylmethyl)-3H-[1,2,3]triazolo[4,5-b]pyridin-5-yl)-2-(trifluoromethyl)benzamide] | 75 to 100% | 0.05 to 0.1 µM | 75 to 100% | –
12 | CC(O)CONC(=O)c1ccc(-c2ccc3nnn(Cc4ccc5ncccc5c4)c3n2)cc1Cl (centres unmarked) [Example 28, 2-chloro-N-(2-hydroxypropoxy)-4-(3-(quinolin-6-ylmethyl)-3H-[1,2,3]triazolo[4,5-b]pyridin-5-yl)benzamide] | 75 to 100% | 0.025 to 0.05 µM | 75 to 100% | –
13 | Cc1cc(-c2ccc3nnn(Cc4ccc5ncccc5c4)c3n2)ccc1C(=O)NOC(C)(C)CO [Example 39, N-(1-hydroxy-2-methylpropan-2-yloxy)-2-methyl-4-(3-(quinolin-6-ylmethyl)-3H-[1,2,3]triazolo[4,5-b]pyridin-5-yl)benzamide] | 75 to 100% | – | 75 to 100% | –
14 | Cc1cc(-c2ccc3ncn(Cc4ccc5ncccc5c4)c3n2)ccc1C(N)=O [Example 1018, 2-methyl-4-(3-(quinolin-6-ylmethyl)-3H-imidazo[4,5-b]pyridin-5-yl) benzamide] | – | – | – | inhibition at 0.1 µM ([1]; MKN-45, Table 4C): 25 to 50%; inhibition ([2]; Table 4C): 50 to 75%
15 | Cc1cc(-c2ccc3nnn(Cc4cc5cccnc5cc4F)c3n2)ccc1C(=O)NOCCO [Example 26, 4-(3-((7-fluoroquinolin-6-yl)methyl)-3H-[1,2,3]triazolo[4,5-b]pyridin-5-yl)-N-(2-hydroxyethoxy)-2-methylbenzamide] | 75 to 100% | 0.025 to 0.05 µM | 75 to 100% | –
16 | CC(C)(O)CONC(=O)c1ccc(-c2ccc3nnn(Cc4ccc5ncccc5c4)c3n2)cc1F [Example 35, 2-fluoro-N-(2-hydroxy-2-methylpropoxy)-4-(3-(quinolin-6-ylmethyl)-3H-[1,2,3]triazolo[4,5-b]pyridin-5-yl)benzamide] | 75 to 100% | 0.025 to 0.05 µM | 75 to 100% | –
17 | CNC(=O)CCNC(=O)c1ccc(-c2ccc3nnn(Cc4ccc5ncccc5c4)c3n2)cc1 [Example 4, N-(3-(methylamino)-3-oxopropyl)-4-(3-(quinolin-6-ylmethyl)-3H-[1,2,3]triazolo[4,5-b]pyridin-5-yl)benzamide] | – | 0.25 to 1 µM | – | inhibition ([2]; Table 4A): 75 to 100%
18 | NC(=O)c1c(F)cc(-c2ccc3ncn(Cc4ccc5ncccc5c4)c3n2)cc1F [Example 1010, 2,6-difluoro-4-(3-(quinolin-6-ylmethyl)-3H-imidazo[4,5-b]pyridin-5-yl) benzamide] | – | – | – | inhibition ([2]; Table 4C): < 25%
19 | Cc1cc(-c2ccc3nnn(Cc4ccc5ncccc5c4)c3n2)ccc1C(=O)NOCCOC(=O)c1ccccc1 [Example 46, 2-(2-methyl-4-(3-(quinolin-6-ylmethyl)-3H-[1,2,3]triazolo[4,5-b]pyridin-5-yl)benzamidooxy)ethyl benzoate] | – | – | 75 to 100% | –
20 | NC(=O)c1ccc(-c2ccc3nnn(Cc4ccc5[nH]c(=O)ccc5c4)c3n2)cc1Cl [Example 1004, 2-chloro-4-(3-((2-oxo-1,2-dihydroquinolin-6-yl)methyl)-3H-[1,2,3]triazolo[4,5-b]pyridin-5-yl)benzamide] | – | – | – | inhibition ([2]; Table 4C): < 25%
21 | CCNC(=S)N/N=C(\C)c1ccc2nnn(Cc3ccc4ncccc4c3)c2n1 [Example 55, N-ethyl-2-(1-(3-(quinolin-6-ylmethyl)-3H-[1,2,3]triazolo[4,5-b]pyridin-5-yl)ethylidene)hydrazinecarbothioamide] | – | – | – | inhibition ([2]; Table 4A): < 25%
22 | Cc1cc(-c2ccc3nnn(Cc4ccc5ncccc5c4)c3n2)ccc1C(=O)NOCCOC(=O)C(C)(C)C [Example 45, 2-(2-methyl-4-(3-(quinolin-6-ylmethyl)-3H-[1,2,3]triazolo[4,5-b]pyridin-5-yl)benzamidooxy)ethyl pivalate] | – | – | 75 to 100% | –

— patent US9815831B2, “3,5-disubstituted-3H-imidazo[4,5-B]pyridine and 3,5-disubstituted-3H-[1,2,3]triazolo[4,5-B] pyridine compounds as modulators of c-Met protein kinases” (Rhizen Pharmaceuticals SA, priority 2012, dated 2017)
